The results in this text go back to PubChem BioAssay (NCI).

Common to all, as to assay: NCI tumour cell line growth inhibition, 48 h
The test system of assay [1] is SNB-78 CNS.
The subject of assay [2] is P388 leukemia.
Assay [3] deals with P388/ADR leukemia.
The test system of assay [4] is SN12K1 renal.
For assay [5], the system named is BT-549 breast.
The subject of assay [6] is HS 578T breast.
In assay [7] the test system is MDA-N.
The test system of assay [8] is DU-145 prostate.

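Assay format: 96-well plates, 48-hour exposure. GI50 is the concentration that inhibits growth by half. TGI is the concentration that stops growth completely.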

`CC1=C/C(=C2/N=C(N(C)C)SS2)C(C)=N1` showed a TGI in assay [1] of more than 100 µM.
For `CCCCS(=O)CC(CO)NC(=O)/C=C/c1c(C)[nH]c(=O)[nH]c1=O` (stereo not drawn), the values for the TGI in assay [2], in assay [3] and in assay [4] were 6.93 µM, 59.2 µM and 24.1 µM, respectively.
As for `C[C@]12CCc3sc(-c4cccc(F)c4)nc3C1=CC[C@@H]1[C@@H]2CC[C@]2(C)C(=O)CC[C@@H]12`, the figures for the GI50 in assay [5] and in assay [6] were 2.2 µM and 3.86 µM, respectively. For the same molecule, the TGI was 8.06 µM in assay [5] and more than 100 µM in assay [6].
Consider `O=C1CCCN1CCCN=c1cc2n(-c3ccc(Cl)cc3)c3ccccc3nc-2cc1Nc1ccc(Cl)cc1`, for which the TGI is 13 µM in assay [2], 15.4 µM in assay [3], 23.3 µM in assay [4] and 75.2 µM in assay [1].
In the case of `O=c1c2c3c(sc2nc2n1N=C(c1ccc([N+](=O)[O-])cc1)CS2)CCCC3`, the TGI in assay [5], in assay [6], in assay [7] and in assay [8] was more than 100 µM each time.
Take `Cn1c(=O)c2nc(NCCO)cnc2n(C)c1=O`: in assay [1], the TGI is more than 100 µM.
For the molecule `O=C(c1ccccc1)c1nn(-c2ccccc2)c2nc3nc(-c4ccccc4)cc(=O)n3nc12`, the GI50 in assay [5] was 21.2 µM; in assay [6] it was 44.6 µM; in assay [8], 23.8 µM. The TGI is 52.2 µM in assay [5], more than 100 µM in assay [6] and 58.2 µM in assay [8].
For `CCc1c(C)c2ccc(OCC(=O)N=Nc3c(O)[nH]c4ccccc34)c(C)c2oc1=O`, in assay [5], the GI50 was 0.817 µM and the TGI stood at 2.1 µM.
Regarding `NC(=O)SCC(=O)Nc1ccc2ncccc2c1`, the TGI in assay [5], in assay [6] and in assay [7] was more than 100 µM in each case.
